In patent publication US9145411B2, “Substituted amino-pyrimidine derivatives” (Asana Biosciences, LLC, priority 2012, dated 2015) one finds IC50 data, which are given here for 18 compounds.

One test deals with PC3 cells. Put plainly: XTT assay for cell viability, PC3 cells. It counts as cell-based. Particulars: Homo sapiens, PC-3; PC3 cell proliferation, 96 hours. As for the experimental part:
Using a commercial kit from Sigma Aldrich (Catalog #X34251) and following its protocol, PC3 cells in the log phase of growth were employed and seeded at an optimal density of 1000 cell/well on to 96 well plates and incubated for 24 hours followed by the addition of compounds of formula (I) in serial dilutions. Compound dilutions were made in DMSO. The cells were incubated with the compounds of formula (I) for 96 hours and XTT tetrazolium dye (Sigma, USA) was subsequently added and incubated at 37° C. After the color formation, absorbance was measured at 465 nm in a Spectramax® Gemini spectrophotometer. EC50 values were calculated using a sigmoidal dose response curve fit in GraphPad Prism® v5 software. The tested compounds of formula (I) which caused inhibition of PC3 cell proliferation as determined by this assay protocol are shown in Table 2.
A general note: Tetrazolium assays rely on reduction of a dye to a coloured formazan, in cell work by metabolically active cells.

Another test has as its target T1, PI3Kα (wild-type) (Homo sapiens, UniProt P42336).
T1 construct: made in house; host or cells: SF9 insect cells
The experiment in a line: PI3 Kinase TR-FRET assay, PI3Kα (wild-type). Particulars: wild-type P110/P85α, 10 μM ATP. It counts as biochemical. How it is done:
The ability of compounds of the invention to inhibit PI3K activity was determined in a homogeneous TR-FRET assay using a PI3K assay kit (Millipore, USA; cat #33-016) according to manufacturer's instructions. PI3-Kinases (isoforms α, β, γ and δ) catalyze the phosphorylation of phosphatidylinositol, PIP2 to PIP3 in the presence of ATP and Mg^2+. The PIP3 product is detected by displacement of biotin-PIP3 from an energy transfer complex consisting of Europium labeled anti-GST monoclonal antibody, a GST-tagged PH domain, biotinylated PIP3 and Streptavidin-APC. Excitation of Europium in the complex results in an energy transfer to the APC and a fluorescence emission at 665 nm. The PIP3 product displaces biotin-PIP3 from the complex resulting in a loss of energy transfer and thus a decrease in signal.
To test for the ability of compounds to inhibit the activity of PI3Kα (wild-type), exemplary compounds of formula (I) were dissolved in DMSO and directly distributed into 384-well plates at a volume of 0.5 μL. 14.5 μL of P110/P85α/PIP2 mixture in buffer (obtained from the Millipore kit) containing MgCl2 (40 mM) and DTT (5 mM) was added to compound wells and incubated for 60 minutes at room temperature. P110/P85α was expressed in SF9 insect cells and purified nickel column extraction. Five ng of wild-type P110/P85α was used in the assay. The kinase reaction was started by the addition of ATP. The assay concentrations of both PIP2 and ATP were 10 μM. The reaction mixture was incubated for 30 minutes at room temperature and was terminated by the addition of stop mix and detection mix. Fluorescence was measured at 615 and 665 nm upon excitation at 340 nm in a Victor™ V5 fluorometer (Perkin Elmer, USA). The fluorescence emission ratio at 665 to 615 nm, proportional to the kinase activity, was plotted against the compound concentration to generate dose-response curves and IC50 values were determined using GraphPad Prism® 5 software.

A further test deals with T2, mTOR kinase (Homo sapiens, UniProt P42345).
T2 construct: purchased Millipore, USA
T2 sequence (P42345 1362-2549 limits assumed): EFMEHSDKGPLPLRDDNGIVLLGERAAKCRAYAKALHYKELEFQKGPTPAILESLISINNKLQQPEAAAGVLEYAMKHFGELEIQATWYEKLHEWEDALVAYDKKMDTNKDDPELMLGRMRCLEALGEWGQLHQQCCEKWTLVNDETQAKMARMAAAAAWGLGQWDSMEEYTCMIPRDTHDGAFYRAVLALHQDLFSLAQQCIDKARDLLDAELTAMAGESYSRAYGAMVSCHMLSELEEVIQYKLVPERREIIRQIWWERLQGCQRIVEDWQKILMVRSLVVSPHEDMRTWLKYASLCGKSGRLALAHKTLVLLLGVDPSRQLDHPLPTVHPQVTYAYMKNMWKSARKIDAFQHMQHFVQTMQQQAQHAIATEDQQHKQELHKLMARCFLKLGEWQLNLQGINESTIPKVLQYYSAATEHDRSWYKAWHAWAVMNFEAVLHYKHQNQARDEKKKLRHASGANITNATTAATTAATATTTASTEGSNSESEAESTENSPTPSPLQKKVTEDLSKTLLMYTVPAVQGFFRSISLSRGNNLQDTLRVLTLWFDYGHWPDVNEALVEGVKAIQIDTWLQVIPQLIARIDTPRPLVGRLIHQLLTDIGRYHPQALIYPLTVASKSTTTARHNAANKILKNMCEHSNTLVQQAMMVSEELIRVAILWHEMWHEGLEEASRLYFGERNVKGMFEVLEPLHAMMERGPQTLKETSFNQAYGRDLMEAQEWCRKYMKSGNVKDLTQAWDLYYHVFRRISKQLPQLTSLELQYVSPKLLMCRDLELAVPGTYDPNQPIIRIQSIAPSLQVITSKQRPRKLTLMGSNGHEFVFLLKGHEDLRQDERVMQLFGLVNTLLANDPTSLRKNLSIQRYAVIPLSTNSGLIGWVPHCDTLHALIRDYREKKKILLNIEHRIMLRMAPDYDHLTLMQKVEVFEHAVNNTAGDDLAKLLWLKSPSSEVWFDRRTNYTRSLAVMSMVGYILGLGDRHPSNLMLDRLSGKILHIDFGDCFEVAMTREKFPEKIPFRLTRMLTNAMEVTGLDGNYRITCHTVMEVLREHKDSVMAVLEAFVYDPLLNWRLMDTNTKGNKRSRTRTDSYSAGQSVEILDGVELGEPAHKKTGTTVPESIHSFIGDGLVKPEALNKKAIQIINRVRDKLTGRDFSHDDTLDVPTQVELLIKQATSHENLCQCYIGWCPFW
The experiment in a line: mTOR kinase TR-FRET assay. The note with it: 20 μM ATP. The class given is biochemical. As for the experimental part:
Compound inhibition for mTOR kinase was determined in a homogeneous TR-FRET assay using the Lance® ULight-p70 S6K (Thr 389) peptide (obtained from Perkin-Elmer). The ULight™-labeled synthetic peptide contains the amino acid residues surrounding Thr389 of human p70 S6K. The ULight-p70 S6K peptide is phosphorylated at Thr389 by mTOR. Phosphorylation motif: LGFTYVAP as substrate.
The compound dilution was carried out in 100% DMSO followed by a buffer dilution. The reaction buffer was HEPES (50 mM pH 7.5), EGTA (1 mM), MnCl2 (3 mM). Test compounds at various concentrations were pre-incubated with mTOR (Millipore, USA; 5 ng) for 60 min, and then the Lance® ULight-p70 S6K (Thr 389) peptide (50 nM) was added along with ATP (20 μM). After incubating the reaction mixture for 60 minutes at room temperature, the kinase reaction was terminated by the addition of EDTA (10 mM) followed by the addition of detection mix, i.e., 1 nM Eu-labeled anti-phospho-substrate antibody (Perkin Elmer, USA). The fluorescence emission at […] was measured upon excitation at 340 nm. IC50 values were subsequently determined using a sigmoidal dose-response curve (variable slope) in GraphPad Prism® 5 software.
Compounds of formula (I) caused inhibition of mTOR kinase activity as determined by this assay.
On the technique in general: In TR-FRET formats the signal depends on donor and acceptor labels being close together.

pIC50: −log10 of the molar value.

T1 sequence (P42336 whole entry, species assumed): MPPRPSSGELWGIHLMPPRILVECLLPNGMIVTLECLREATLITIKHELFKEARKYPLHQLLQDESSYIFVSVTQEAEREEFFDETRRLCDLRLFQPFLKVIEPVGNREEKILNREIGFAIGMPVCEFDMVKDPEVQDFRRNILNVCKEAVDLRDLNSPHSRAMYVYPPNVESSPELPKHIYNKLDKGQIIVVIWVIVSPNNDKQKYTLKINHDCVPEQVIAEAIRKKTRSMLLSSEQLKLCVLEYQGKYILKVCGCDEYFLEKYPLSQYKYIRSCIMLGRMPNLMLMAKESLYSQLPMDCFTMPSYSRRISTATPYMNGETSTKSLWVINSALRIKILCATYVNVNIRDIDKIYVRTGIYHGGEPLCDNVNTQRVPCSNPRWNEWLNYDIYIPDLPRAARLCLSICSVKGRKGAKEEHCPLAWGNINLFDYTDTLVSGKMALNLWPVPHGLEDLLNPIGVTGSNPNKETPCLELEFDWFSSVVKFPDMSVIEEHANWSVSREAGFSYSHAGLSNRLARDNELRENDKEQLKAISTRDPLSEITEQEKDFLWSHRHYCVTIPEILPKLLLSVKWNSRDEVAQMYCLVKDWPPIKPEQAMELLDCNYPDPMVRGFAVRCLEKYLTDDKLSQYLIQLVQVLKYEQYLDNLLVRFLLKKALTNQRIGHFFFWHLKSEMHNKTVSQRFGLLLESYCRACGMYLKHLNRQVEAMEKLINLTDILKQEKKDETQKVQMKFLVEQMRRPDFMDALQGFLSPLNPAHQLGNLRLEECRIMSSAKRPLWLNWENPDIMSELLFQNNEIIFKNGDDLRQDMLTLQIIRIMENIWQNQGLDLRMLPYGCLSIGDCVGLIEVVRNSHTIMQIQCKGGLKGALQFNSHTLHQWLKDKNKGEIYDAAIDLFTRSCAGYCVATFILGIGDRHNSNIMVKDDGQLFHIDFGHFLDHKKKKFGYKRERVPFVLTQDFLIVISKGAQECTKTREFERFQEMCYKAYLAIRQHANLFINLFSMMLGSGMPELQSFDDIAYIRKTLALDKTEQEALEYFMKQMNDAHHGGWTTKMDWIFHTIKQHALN
T1 sequence (P27986 whole entry partner, species assumed): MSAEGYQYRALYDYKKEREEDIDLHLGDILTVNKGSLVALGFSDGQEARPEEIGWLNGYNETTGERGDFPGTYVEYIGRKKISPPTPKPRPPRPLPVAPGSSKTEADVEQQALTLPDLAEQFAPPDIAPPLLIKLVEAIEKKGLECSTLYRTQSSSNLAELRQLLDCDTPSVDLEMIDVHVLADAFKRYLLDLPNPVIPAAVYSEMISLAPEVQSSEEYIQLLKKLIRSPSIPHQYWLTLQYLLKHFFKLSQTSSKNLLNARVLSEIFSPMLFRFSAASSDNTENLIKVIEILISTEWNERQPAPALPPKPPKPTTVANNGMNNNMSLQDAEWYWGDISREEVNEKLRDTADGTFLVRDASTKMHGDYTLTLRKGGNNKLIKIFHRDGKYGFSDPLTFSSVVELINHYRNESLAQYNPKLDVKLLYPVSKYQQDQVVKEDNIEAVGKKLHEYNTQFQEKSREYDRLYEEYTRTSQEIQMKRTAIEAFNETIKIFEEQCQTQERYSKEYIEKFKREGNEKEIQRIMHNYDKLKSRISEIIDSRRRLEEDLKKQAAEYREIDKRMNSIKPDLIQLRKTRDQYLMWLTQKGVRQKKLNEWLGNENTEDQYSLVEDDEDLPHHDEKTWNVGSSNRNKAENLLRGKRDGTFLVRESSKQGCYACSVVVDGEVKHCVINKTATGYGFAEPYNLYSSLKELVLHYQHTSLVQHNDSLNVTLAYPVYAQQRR

With `Nc1ncc(-c2nc(N3CCOCC3)c3ncc(-c4ccco4)cc3n2)cn1` [Example 25, 5-(7-(furan-2-yl)-4-morpholinopyrido[3,2-d]-pyrimidin-2-yl)pyrimidin-2-amine], the pIC50 was 6.30 to 7.00 in the test with PC3 cells, over 7.30 at PI3Kα (wild-type) and over 7.30 on mTOR kinase.
Take `Cc1ccc(-c2cnc3c(N4CCOCC4)nc(-c4cnc(N)nc4)nc3c2)o1` [Example 26, 5-(7-(5-methylfuran-2-yl)-4-morpholino-pyrido[3,2-d]pyrimidin-2-yl)pyrimidin-2-amine]: the figures for the negative-log IC50 (pIC50) in the test with PC3 cells, at PI3Kα (wild-type) and against mTOR kinase were 5.30 to 6.30, over 7.30 and 6.70 to 7.30, respectively.
Consider `CNC(=O)Nc1cccc(-c2cnc3c(N4CCOCC4)nc(-c4cnc(N)nc4)nc3c2)c1` [Example 28, 1-(3-(2-(2-amino-pyrimidin-5-yl)-4-morpholinopyrido[3,2-d]pyrimidin-7-yl)phenyl)-3-methylurea], for which the pIC50 in the test on PC3 cells is 5.30 to 6.30; against PI3Kα (wild-type) it was over 7.30; on mTOR kinase, 6.70 to 7.30.
The matching figures for `Nc1ncc(-c2nc(N3CCOCC3)c3ncc(-c4ccc(C(=O)Nc5cccnc5)o4)cc3n2)cn1` [Example 34, 5-(2-(2-aminopyrimidin-5-yl)-4-morpholino-pyrido[3,2-d]pyrimidin-7-yl)-N-(pyridin-3-yl)furan-2-carboxamide]: 6.30 to 7.00, over 7.30 and over 7.30.
The like results for `CC(=O)N1CCN(C(=O)c2cccc(-c3cnc4c(N5CCOCC5)nc(-c5cnc(N)nc5)nc4c3)c2)CC1` [Example 35, 1-(4-(3-(2-(2-amino-pyrimidin-5-yl)-4-morpholinopyrido[3,2-d]-pyrimidin-7-yl)benzoyl)-piperazin-1-yl)ethanone] were, in that order, 5.30 to 6.30, over 7.30 and 6.70 to 7.30.
With `Nc1ncc(-c2nc(N3CCOCC3)c3ncc(-c4ccc(C(=O)Nc5ccncc5)cc4)cc3n2)cn1` [Example 38, 4-(2-(2-aminopyrimidin-5-yl)-4-morpholino-pyrido[3,2-d]pyrimidin-7-yl)-N-(pyridin-4-yl)-benzamide], the results for the pIC50 in the test with PC3 cells, on PI3Kα (wild-type) and on mTOR kinase were under 6.00, over 7.30 and 6.70 to 7.30, respectively.
The matching figures for `CC(F)C(=O)Nc1cccc(-c2cnc3c(N4CCOCC4)nc(-c4cnc(N)nc4)nc3c2)c1` (stereo not drawn) [Example 51, N-(3-(2-(2-amino-pyrimidin-5-yl)-4-morpholinopyrido[3,2-d]pyrimidin-7-yl)phenyl)-2-fluoropropanamide]: 6.30 to 7.00, over 7.30 and over 7.30.
The like results for `CC(=O)Nc1ccc(F)c(-c2cnc3c(N4CCOCC4)nc(-c4cnc(N)nc4)nc3c2)c1` [Example 55, N-(3-(2-(2-amino-pyrimidin-5-yl)-4-morpholinopyrido[3,2-d]pyrimidin-7-yl)-4-fluorophenyl)acetamide] were, in that order, 6.30 to 7.00, over 7.30 and 6.70 to 7.30.
The like results for `Nc1ncc(-c2nc(N3CCOCC3)c3ncc(-c4cccc(NC(=O)C5CCCCC5)c4)cc3n2)cn1` [Example 60, N-(3-(2-(2-amino-pyrimidin-5-yl)-4-morpholinopyrido[3,2-d]pyrimidin-7-yl)-phenyl)cyclohexane-carboxamide] were, in that order, 5.30 to 6.30, over 7.30 and 6.70 to 7.30.
As to `Nc1ncc(-c2nc(N3CCOCC3)c3ncc(-c4cccc(NC(=O)C56CC7CC(CC(C7)C5)C6)c4)cc3n2)cn1` [Example 65, N-(3-(2-(2-amino-pyrimidin-5-yl)-4-morpholinopyrido[3,2-d]pyrimidin-7-yl)-phenyl)adamantane-1-carboxamide], the values for the pIC50 with PC3 cells, against PI3Kα (wild-type) and against mTOR kinase were 5.30 to 6.30, over 7.30 and 5.00 to 6.70, respectively.
The matching figures for `Nc1ncc(-c2nc(N3CCOCC3)c3ncc(-c4ccc(NC(=O)c5cccnc5)cc4)cc3n2)cn1` [Example 77, N-(4-(2-(2-amino-pyrimidin-5-yl)-4-morpholinopyrido[3,2-d]pyrimidin-7-yl)-phenyl)nicotinamide]: 6.30 to 7.00, over 7.30 and over 7.30.
The matching figures for `CN1CCN(CC(=O)Nc2cccc(-c3cnc4c(N5CCOCC5)nc(-c5cnc(N)nc5)nc4c3)c2)CC1` [Example 83, N-(3-(2-(2-aminopyrimidin-5-yl)-4-morpholinopyrido[3,2-d]pyrimidin-7-yl)phenyl)-2-(4-methylpiperazin-1-yl)acetamide]: 6.30 to 7.00, over 7.30 and 6.70 to 7.30.
In the case of `CN1CCN(C(=O)Nc2cccc(-c3cnc4c(N5CCOCC5)nc(-c5cnc(N)nc5)nc4c3)c2)CC1` [Example 89, N-(3-(2-(2-aminopyrimidin-5-yl)-4-morpholinopyrido[3,2-d]pyrimidin-7-yl)phenyl)-4-methylpiperazine-1-carboxamide], the pIC50 in the test on PC3 cells was 5.30 to 6.30; against PI3Kα (wild-type), over 7.30; at mTOR kinase, over 7.30.
Consider `Nc1ncc(-c2nc(N3CCOCC3)c3ncc(-c4cccc(C(=O)Nc5ccncc5F)c4)cc3n2)cn1` [Example 97, 3-(2-(2-aminopyrimidin-5-yl)-4-morpholinopyrido[3,2-d]-pyrimidin-7-yl)-N-(3-fluoropyridin-4-yl)-benzamide], for which the pIC50 with PC3 cells was 6.30 to 7.00; against PI3Kα (wild-type) it was over 7.30; against mTOR kinase, over 7.30.
As for `Nc1ncc(-c2nc(N3CCOCC3)c3ncc(-c4cccc(C(=O)NC5CC5)c4)cc3n2)cn1` [Example 98, 3-(2-(2-aminopyrimidin-5-yl)-4-morpholinopyrido[3,2-d]-pyrimidin-7-yl)-N-cyclopropylbenzamide], the pIC50 in the test on PC3 cells is 6.30 to 7.00; on PI3Kα (wild-type) it was over 7.30; against mTOR kinase it was over 7.30.
With `Nc1ncc(-c2nc(N3CCOCC3)c3ncc(-c4cccc(NC(=O)c5cncc(F)c5)c4)cc3n2)cn1` [Example 99, N-(3-(2-(2-amino-pyrimidin-5-yl)-4-morpholinopyrido[3,2-d]-pyrimidin-7-yl)phenyl)-5-fluoronicotinamide], the pIC50 was 6.30 to 7.00 with PC3 cells, over 7.30 against PI3Kα (wild-type) and over 7.30 at mTOR kinase.
As for `CN1CCN(c2cncc(-c3cnc4c(N5CCOCC5)nc(-c5cnc(N)nc5)nc4c3)c2)CC1` [Example 100, 5-(7-(5-(4-methyl-piperazin-1-yl)pyridin-3-yl)-4-morpholino-pyrido[3,2-d]pyrimidin-2-yl)pyrimidin-2-amine], the figures for the pIC50 in the test with PC3 cells, on PI3Kα (wild-type) and against mTOR kinase were 5.30 to 6.30, over 7.30 and 6.70 to 7.30, respectively.
The like results for `CN1CCN(c2cccc(-c3cnc4c(N5CCOCC5)nc(-c5cnc(N)nc5)nc4c3)c2)CC1` [Example 101, 5-(7-(3-(4-methyl-piperazin-1-yl)phenyl)-4-morpholinopyrido[3,2-d]-pyrimidin-2-yl)pyrimidin-2-amine] were, in that order, 6.30 to 7.00, over 7.30 and 6.70 to 7.30.

As usually defined, the pIC50 is the IC50 on a negative log10 scale, so that one unit is a factor of ten. Low values mean a high IC50, high ones a low IC50.
